Source: PubChem BioAssay (NCI)
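The compound was tested at five concentrations on cells cultured in 96-well plates, with a 48-hour exposure period. TGI: total growth inhibition.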

How the values were obtained:
Test in all cases: NCI tumour cell line growth inhibition, 48 h
HT29 colon = system: HT29 colon
SW-620 colon = system: SW-620 colon
COLO 205 colon = system: COLO 205 colon
NCI-H23 lung = system: NCI-H23 lung
HCC-2998 colon = system: HCC-2998 colon
MCF7 breast = system: MCF7 breast
NCI-H460 lung = system: NCI-H460 lung
UACC-257 melanoma = system: UACC-257 melanoma
EKVX NSCLC = system: EKVX NSCLC
MDA-MB-435 = system: MDA-MB-435
SK-OV-3 ovarian = system: SK-OV-3 ovarian
SN12C renal = system: SN12C renal
NCI/ADR-RES ovarian = system: NCI/ADR-RES ovarian
DU-145 prostate = system: DU-145 prostate
RPMI-8226 leukemia = system: RPMI-8226 leukemia
MDA-MB-231 breast = system: MDA-MB-231 breast
HOP-92 NSCLC = system: HOP-92 NSCLC
KM12 colon = system: KM12 colon
IGROV1 ovarian = system: IGROV1 ovarian
NCI-H226 lung = system: NCI-H226 lung
CAKI-1 renal = system: CAKI-1 renal
UO-31 renal = system: UO-31 renal
SK-MEL-28 melanoma = system: SK-MEL-28 melanoma
HL-60(TB) leukemia = system: HL-60(TB) leukemia
SK-MEL-2 melanoma = system: SK-MEL-2 melanoma
SNB-19 CNS = system: SNB-19 CNS
MALME-3M melanoma = system: MALME-3M melanoma
HCT-116 colon = system: HCT-116 colon
HCT-15 colon = system: HCT-15 colon
T-47D breast = system: T-47D breast
SNB-75 CNS = system: SNB-75 CNS
UACC-62 melanoma = system: UACC-62 melanoma
OVCAR-5 ovarian = system: OVCAR-5 ovarian
TK-10 renal = system: TK-10 renal
OVCAR-8 ovarian = system: OVCAR-8 ovarian
PC-3 prostate = system: PC-3 prostate
786-0 renal = system: 786-0 renal
SF-295 CNS = system: SF-295 CNS
SK-MEL-5 melanoma = system: SK-MEL-5 melanoma
ACHN renal = system: ACHN renal
MDA-N = system: MDA-N
U251 CNS = system: U251 CNS
A498 renal = system: A498 renal
A549 NSCLC = system: A549 NSCLC
K-562 leukemia = system: K-562 leukemia
OVCAR-4 ovarian = system: OVCAR-4 ovarian
SF-539 CNS = system: SF-539 CNS
RXF 393 renal = system: RXF 393 renal
BT-549 breast = system: BT-549 breast
CCRF-CEM leukemia = system: CCRF-CEM leukemia
SR leukemia = system: SR leukemia

O=C(OCc1ccccc1)N(CCCCN(CCCNCc1ccccc1)C(=O)OCc1ccccc1)CCCNCc1ccccc1
TGI (HT29 colon): 0.663 µM
TGI (SW-620 colon): 0.39 µM
TGI (COLO 205 colon): 0.33 µM
TGI (NCI-H23 lung): 3.4 µM
TGI (HCC-2998 colon): 0.933 µM
TGI (MCF7 breast): > 100 µM
TGI (NCI-H460 lung): 0.372 µM
TGI (UACC-257 melanoma): 1.92 µM
TGI (EKVX NSCLC): 2.94 µM
TGI (MDA-MB-435): 0.335 µM
TGI (SK-OV-3 ovarian): > 100 µM
TGI (SN12C renal): 0.886 µM
TGI (NCI/ADR-RES ovarian): 3.43 µM
TGI (DU-145 prostate): 2.55 µM
TGI (RPMI-8226 leukemia): 0.605 µM
TGI (MDA-MB-231 breast): 2.56 µM
TGI (HOP-92 NSCLC): 2.82 µM
TGI (KM12 colon): 1.6 µM
TGI (IGROV1 ovarian): 2.05 µM
TGI (NCI-H226 lung): 2.07 µM
TGI (CAKI-1 renal): 2.93 µM
TGI (UO-31 renal): 2.75 µM
TGI (SK-MEL-28 melanoma): 3.08 µM
TGI (HL-60(TB) leukemia): 0.507 µM
TGI (SK-MEL-2 melanoma): 2.27 µM
TGI (SNB-19 CNS): 1.11 µM
TGI (MALME-3M melanoma): 3.29 µM
TGI (HCT-116 colon): 0.384 µM
TGI (HCT-15 colon): 1.17 µM
TGI (T-47D breast): 3.57 µM
TGI (SNB-75 CNS): 2.69 µM
TGI (UACC-62 melanoma): 3.19 µM
TGI (OVCAR-5 ovarian): 2.83 µM
TGI (TK-10 renal): 3.43 µM
TGI (OVCAR-8 ovarian): 2.79 µM
TGI (PC-3 prostate): 2.61 µM
TGI (786-0 renal): 1.29 µM
TGI (SF-295 CNS): > 100 µM
TGI (SK-MEL-5 melanoma): > 100 µM
TGI (ACHN renal): 2.93 µM
TGI (MDA-N): 0.983 µM

C/C(=N\Nc1nc2cccnc2s1)c1ccccn1
TGI (SW-620 colon): > 100 µM
TGI (U251 CNS): > 100 µM
TGI (COLO 205 colon): > 100 µM
TGI (NCI-H23 lung): 0.949 µM
TGI (HCC-2998 colon): 3.18 µM
TGI (A498 renal): > 100 µM
TGI (MCF7 breast): > 54.8 µM
TGI (NCI-H460 lung): > 100 µM
TGI (EKVX NSCLC): 5.73 µM
TGI (MDA-MB-435): > 100 µM
TGI (SK-OV-3 ovarian): 2.79 µM
TGI (SN12C renal): > 100 µM
TGI (NCI/ADR-RES ovarian): 0.06 µM
TGI (DU-145 prostate): > 100 µM
TGI (A549 NSCLC): > 34.8 µM
TGI (K-562 leukemia): > 100 µM
TGI (RPMI-8226 leukemia): > 100 µM
TGI (MDA-MB-231 breast): 38.6 µM
TGI (KM12 colon): > 33.6 µM
TGI (IGROV1 ovarian): 1.3 µM
TGI (OVCAR-4 ovarian): 29.5 µM
TGI (CAKI-1 renal): 12.2 µM
TGI (UO-31 renal): 0.307 µM
TGI (SF-539 CNS): 20.6 µM
TGI (SK-MEL-28 melanoma): > 100 µM
TGI (HL-60(TB) leukemia): > 100 µM
TGI (SK-MEL-2 melanoma): > 34.6 µM
TGI (RXF 393 renal): 19.9 µM
TGI (SNB-19 CNS): > 87 µM
TGI (MALME-3M melanoma): 42 µM
TGI (BT-549 breast): 15.9 µM
TGI (HCT-116 colon): > 32.2 µM
TGI (HCT-15 colon): 21.5 µM
TGI (CCRF-CEM leukemia): > 100 µM
TGI (SNB-75 CNS): 6.06 µM
TGI (OVCAR-5 ovarian): > 64.4 µM
TGI (SR leukemia): > 100 µM
TGI (OVCAR-8 ovarian): 0.0147 µM
TGI (PC-3 prostate): 30.6 µM
TGI (786-0 renal): > 100 µM
TGI (SF-295 CNS): 3.48 µM
TGI (SK-MEL-5 melanoma): 9.02 µM
TGI (ACHN renal): 1.07 µM
TGI (MDA-N): > 100 µM
